According to patent US8486927B2 (Thar Pharmaceuticals, priority 2007, dated 2013):

Legend:
[1] = In-vivo absorption test in rats, oral gavage, lamotrigine in blood serum by HPLC-UV; design: species or system Rats Sprague-Dawley; conditions: for Plasma concentration of lamotrigine in rats: rats (N = 5), oral gavage, 10 mg/kg as lamotrigine
Experimental: Rats historically have been used in safety evaluation and PK screening studies and are recommended by appropriate regulatory agencies.
Dose preparation; dose is prepared and suspended in 1 ml of 5% PEG 400 with 95% methylcellulose solution (weight percentage); methylcellulose solution is prepared by dissolving 0.5% methylcellulose in water (weight percentage).
The machine was operated by Total Chrome Workstation (Perkin Elmer Instruments LLC).

[2] = cited from earlier work
[3] = Sprague-Dawley, rat, plasma, po, 10 mg/kg

Compound | Plasma concentration of lamotrigine in rats ([1]; time 0 hrs) [ng/mL] | Plasma concentration of lamotrigine in rats ([1]; time 0.5 hrs) [ng/mL] | Plasma concentration of lamotrigine in rats ([1]; time 1 hrs) [ng/mL] | Plasma concentration of lamotrigine in rats ([1]; time 2 hrs) [ng/mL] | Plasma concentration of lamotrigine in rats ([1]; time 3 hrs) [ng/mL] | Plasma concentration of lamotrigine in rats ([1]; time 4 hrs) [ng/mL] | Plasma concentration of lamotrigine in rats ([1]; time 8 hrs) [ng/mL] | Plasma concentration of lamotrigine in rats ([1]; time 12 hrs) [ng/mL] | Plasma concentration of lamotrigine in rats ([1]; time 24 hrs) [ng/mL] | concentration at 0 h [1, 3] [ng/mL] | concentration at 0.5 h [1, 3] [ng/mL] | concentration at 1 h [1, 3] [ng/mL] | concentration at 2 h [1, 3] [ng/mL] | concentration at 3 h [1, 3] [ng/mL] | concentration at 4 h [1, 3] [ng/mL] | concentration at 8 h [1, 3] [ng/mL] | concentration at 12 h [1, 3] [ng/mL] | concentration at 24 h [1, 3] [ng/mL] | extent of absorption, solid versus solution ([2]; drug delivered as a solid or as a solution) | extent of absorption by site of delivery ([2]; drug delivered to any point in the gastrointestinal tract between the stomach and the ascending colon)
NC(=O)c1cccnc1.Nc1nnc(-c2cccc(Cl)c2Cl)c(N)n1 [Cocrystal 2] | 0 | 1184 | 1561 | 1605 | 1757 | 1609 | 1823 | 1840 | 971.8 | – | – | – | – | – | – | – | – | – | – | –
Nc1nnc(-c2cccc(Cl)c2Cl)c(N)n1 [Lamotrigine, 6-(2,3-dichlorophenyl)-1,2,4-triazine-3,5-diamine] | – | – | – | – | – | – | – | – | – | 0 | 1590 | 2240 | 2370 | 2420 | 2480 | 2680 | 2860 | 2130 | similar | consistent
